Source: PubChem BioAssay (NCI)
Where “and” joins values, the source holds several entries; their conditions need not be identical. Equal values may be shown once.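 A five-concentration, 48-hour dose response in 96-well plates underlies each endpoint, interpolated linearly between surrounding concentrations. GI50 is the concentration that inhibits growth by half. TGI is the concentration that stops growth completely.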

Tests used:
Experiment in all cases: inhibition of tumour cell growth, NCI panel, 48 h
786-0 renal = system: 786-0 renal
ACHN renal = system: ACHN renal
HCT-116 colon = system: HCT-116 colon
HL-60(TB) leukemia = system: HL-60(TB) leukemia
MCF7 breast = system: MCF7 breast
NCI-H23 lung = system: NCI-H23 lung
NCI-H522 lung = system: NCI-H522 lung
OVCAR-5 ovarian = system: OVCAR-5 ovarian
RXF 393 renal = system: RXF 393 renal
SNB-19 CNS = system: SNB-19 CNS

SMILES	GI50 (786-0 renal)	TGI (786-0 renal)	GI50 (ACHN renal)	TGI (ACHN renal)	GI50 (HCT-116 colon)	TGI (HCT-116 colon)	GI50 (HL-60(TB) leukemia)	TGI (HL-60(TB) leukemia)	GI50 (MCF7 breast)	TGI (MCF7 breast)	GI50 (NCI-H23 lung)	TGI (NCI-H23 lung)	GI50 (NCI-H522 lung)	TGI (NCI-H522 lung)	GI50 (OVCAR-5 ovarian)	TGI (OVCAR-5 ovarian)	GI50 (RXF 393 renal)	TGI (RXF 393 renal)	GI50 (SNB-19 CNS)	TGI (SNB-19 CNS)
O=C(O)c1ccc(NCn2nc(-c3ccccc3O)oc2=S)cc1O	95.2 µM	> 100 µM	31.6 µM	99.1 µM	44.9 µM	> 100 µM	> 100 µM	> 100 µM	> 100 µM	> 100 µM	> 100 µM	> 100 µM	> 100 µM	> 100 µM	> 100 µM	> 100 µM	> 100 µM	> 100 µM	> 100 µM	> 100 µM
NS(=O)(=O)c1ccc(N=Nc2c(O)[nH]c3cccc(CCc4ccncc4)c23)cc1	> 25 µM	> 25 µM	> 25 µM	> 25 µM	> 25 µM	> 25 µM	> 25 µM	> 25 µM	> 25 µM	> 25 µM	> 25 µM	> 25 µM	> 25 µM	> 25 µM	> 25 µM	> 25 µM	> 25 µM	> 25 µM	> 25 µM	> 25 µM
Cc1cccc2c1NC(=O)[C@@H](NC(=O)[C@H](CCC(F)(F)F)[C@H](CCC(F)(F)F)C(N)=O)N=C2c1cccc(F)c1	20.6 µM	56.3 µM	45.1 µM	> 100 µM	51.2 µM	> 100 µM	> 100 µM	> 100 µM	24.1 µM	> 100 µM	30.5 µM	> 100 µM	16.6 µM	53.7 µM	86.4 µM	> 100 µM	13.5 µM	40.4 µM	17 µM	41 µM
COc1ccc2c(c1)OC(N)=C(C#N)C2c1ccc(F)c(F)c1 (stereo not drawn)	0.595 µM	> 96.6 µM	0.564 µM	> 72.8 µM	0.41 µM	25.5 µM	0.272 µM	0.716 µM	0.333 µM	> 67.8 µM	1.15 µM	> 100 µM	0.255 µM	9.25 µM	2.84 µM	> 100 µM	0.365 µM	5.57 µM	0.58 µM	> 100 µM
CCCC(c1cc(C(C)(C)C)c(O)cc1C)c1cc(C(C)(C)C)c(O)cc1C		5.41 µM		7.4 µM		3.96 µM		4.94 µM		4.85 µM		6.24 µM		5.72 µM		4.54 µM		4.56 µM		16.9 µM
COc1cc2cc(Oc3ccc(NC(=O)Nc4ccc(F)c(C(F)(F)F)c4)cc3)c(C)nc2cc1OCCN1CCOCC1	1.73 µM	3.44 µM	2.3 µM	11.4 µM	1.11 µM	11.2 µM	2.38 µM	6.14 µM	1.46 µM	3.48 µM	1.43 µM	5.88 µM	2.04 µM	9.43 µM	5.11 µM	21.7 µM	1.78 µM	3.94 µM	3.96 µM	19.3 µM
O=C(/C=C/c1cccnc1)c1ccccc1	7.9 µM	21.4 µM	4.51 µM	17.1 µM	2.14 µM	5.83 µM	7.02 µM	28.8 µM	2.92 µM	12.4 µM	17.3 µM	39.5 µM	1.67 µM	4.65 µM	14.7 µM	33.3 µM	10.9 µM	23.2 µM	11.7 µM	25.2 µM
COc1cccc(Nc2ncnn3ccc(CN4CC[C@@H](N)[C@H](O)C4)c23)c1	1.08 µM and 1.18 µM	20.6 µM and > 10 µM	0.0305 µM and 0.0373 µM	6.96 µM and 7.74 µM	6.69 µM and 2.55 µM	26.4 µM and > 6.8 µM	20.3 µM and > 4.71 µM	41.1 µM and > 8.1 µM	11.3 µM and > 4.2 µM	24.5 µM and > 8.69 µM	2.53 µM and 3.05 µM	18.4 µM and > 10 µM	0.0245 µM and 0.0175 µM	15.1 µM and > 4.56 µM	0.467 µM and 0.357 µM	32.5 µM and > 10 µM	0.601 µM and 0.405 µM	5.11 µM and 2.41 µM	14.4 µM and 8.98 µM	97.7 µM and > 10 µM
Oc1c(CCl)cc(Cl)cc1Cc1cc(Cl)cc(Cc2cc(Cl)cc(CCl)c2O)c1O	4.61 µM	25.3 µM	3.09 µM	12.8 µM	2.92 µM	10.4 µM	2.48 µM	8.13 µM	2.73 µM	10.9 µM	2.18 µM	7.31 µM	2.73 µM	10.2 µM	12.2 µM	38.7 µM	2.59 µM	9.43 µM	3.02 µM	15.9 µM
NNC(=S)N/N=C/c1ccccn1	1.76 µM	> 100 µM	1.71 µM	> 100 µM	1.66 µM	> 100 µM	1.74 µM	5.92 µM	2.99 µM	> 100 µM	3.54 µM	> 100 µM	0.258 µM	0.859 µM	3.68 µM	> 100 µM	2.5 µM	> 100 µM	3.57 µM	> 100 µM
CC(=O)N[C@@H](Cc1ccc(OP(=O)(O)O)cc1)C(=O)N[C@H]1CCC(=O)N2CCC[C@@H](C(=O)NCc3cccc4ccccc34)N2C1=O	> 25 µM	> 25 µM	> 25 µM	> 25 µM	> 25 µM	> 25 µM	> 25 µM	> 25 µM	> 25 µM	> 25 µM	> 25 µM	> 25 µM	> 25 µM	> 25 µM	> 25 µM	> 25 µM	> 25 µM	> 25 µM	> 25 µM	> 25 µM
COC(=O)Nc1nc2ccc(C(=O)C3CC3)cc2[nH]1	0.581 µM	30.5 µM	0.79 µM	> 100 µM	0.438 µM		0.448 µM	> 100 µM	0.331 µM	> 56.1 µM	0.47 µM	> 27.6 µM	0.426 µM	16.4 µM	3.25 µM	> 56.1 µM	0.345 µM		0.88 µM	> 56.5 µM
COc1c(O)cc2c(c1CC=C(C)C)OC(=O)c1c(cc(O)c(CC=C(C)C)c1O)O2	4.59 µM	8.47 µM	3.93 µM	7.49 µM	3.91 µM	7.82 µM	5.76 µM	15.4 µM	6.48 µM	25 µM	3.45 µM	8.29 µM	4.16 µM	8.06 µM	3.89 µM	7.85 µM	4.02 µM	7.75 µM	4.5 µM	8.51 µM
